Here are results for 1 compound from patent US20100243432A1, “HUMIDIFIER” (priority 2007, published 2010).

The data set can be described thus: solubility of AgCl calculated from solubility product. The data set is classed as physicochemical. Conditions: in water. From the text:
As described above, it can be seen that when the silver ions are eluted through the electrolysis, the sterilization can be more efficiently conducted than when the silver ions are eluted through other methods.

As for `[Cl][Ag]` [AgCl, silver chloride], the “dissolvable AgCl, as a concentration of the silver ions” value is listed as “approximately 1.5 mg/L”.
